Source: patent publication US20050256093A1, “Branched polyamine steroid derivatives” (Leo Pharma, priority 2002, published 2005)
In brackets after ≈: the same amount, converted by molar mass.

Experiments:
Assay in all cases: agar cup assay MIC
Format in all cases: cell-based
[1] = system: Asbergillus niger ZM35; conditions: Aspergillus niger
From the text: (§1) In vitro investigations have shown a significant potency of the compounds of the invention against a large number of bacteria including gram-positive and gram-negative strains (Staphyiococci, Streptococci, Corynebacteriae, Mycobacteriae, Proteus, Propionibacterium, Pseudomonas, Neisseriae, E. coli) and fungal strains (Candida and Aspergillus). […] In addition, the studies of post-antibiotic effects point towards a strong bactericidal effect of the compounds of the invention. […] Minimum Inhibitory Concentrations were estimated using an agar cup assay. Bacterial strains were obtained from the American Type Culture Collection or from our own collection of clinical isolates. Colonies from fresh overnight culture were resuspended in saline water to 0.5 MacFarland corresponding to 10^8 CFU/ml. 200 ml Mueller Hinton agar (Oxoid) at 48° C. was inoculated at a concentration of 10^6 CFU/ml and poured into square petri dishes (245×245 mm). Holes were made in the inoculated plates and 200 μl of the compounds to be tested were disposed into each hole. A dilution series of compounds contained six dilution between 0.25 and 125 μg/ml. For Streptococci Mueller Hinton agar was supplemented with 5% sheep blood. Plates were appropriately incubated and zone diameters of growth inhibition were measured using an electronic caliper. MICs were estimated using a linear regression curve between the zone diameter of growth inhibition and the log2 of the sample concentration. The microbiological assay set up is in agreement with the European Pharmacopoeia 3rd edition (1997). The inhibition zones are function of the concentration of the compounds used. Known antibiotics including fusidic acid (FA), mupirocin and linezolid were used as reference compounds.

[2] = system: Candida albicans ZA
From the text: as §1

[3] = system: Corynebacterium xerosis FF
From the text: as §1

[4] = system: E. coli HA165; conditions: Escherichia coli
From the text: as §1

[5] = system: Propionibacterium acnes FN33; conditions: Cutibacterium acnes
From the text: as §1

[6] = system: Pseudomonas aeruginosa BA17
From the text: as §1

[7] = system: S. aureus CJ234F; conditions: Staphylococcus aureus; S. aureus CJ234F (MRSA, Fus. resistant)
From the text: as §1

[8] = system: S. aureus CJ234R; conditions: Staphylococcus aureus; S. aureus CJ234R (MRSA, Rifampicin resistant)
From the text: as §1

[9] = system: S. aureus CJ247; conditions: Staphylococcus aureus
From the text: as §1

[10] = system: S. aureus N6; conditions: Staphylococcus aureus; S. aureus N6 (Fus. resistant)
From the text: as §1

[11] = system: S. epidermis CK5; conditions: Staphylococcus epidermidis
From the text: as §1

[12] = system: Saccaromyces cervisiae ZZ7; conditions: Saccharomyces cerevisiae
From the text: as §1

[13] = system: Streptococcus faecium EI19; conditions: Enterococcus faecium; Streptococcus faecium EI19 (Penicillin resistant); agar with 5% sheep blood
From the text: as §1

[14] = system: Streptococcus pyogenes EC88; conditions: agar with 5% sheep blood
From the text: as §1

[15] = system: S. aureus CJ200; conditions: Staphylococcus aureus
From the text: as §1

SMILES	MIC [1] [µg/mL]	MIC [2] [µg/mL]	MIC [3] [µg/mL]	MIC [4] [µg/mL]	MIC [5] [µg/mL]	MIC [6] [µg/mL]	MIC [7] [µg/mL]	MIC [8] [µg/mL]	MIC [9] [µg/mL]	MIC [10] [µg/mL]	MIC [11] [µg/mL]	MIC [12] [µg/mL]	MIC [13] [µg/mL]	MIC [14] [µg/mL]	MIC [15] [µg/mL]
CC(=O)O[C@H]1C[C@@]2(C)C(CC=C3[C@]2(C)CCC2[C@H](C)[C@H](O)CC[C@]32C)[C@@H]1[C@H](CCCC(C)C)C(=O)NCCN(CCN)CCN (stereo partly drawn) [Compound 106, 21-N-{2′-[bis(2′-aminoethyl)amino]ethyl}-9(11)-en-17R,20S,24,25-tetrahydrofusid-21-amide]	63 (≈ 99.8 µM)	16 (≈ 25.4 µM)	4 (≈ 6.34 µM)	16 (≈ 25.4 µM)	4 (≈ 6.34 µM)	16 (≈ 25.4 µM)	4 (≈ 6.34 µM)	4 (≈ 6.34 µM)	4 (≈ 6.34 µM)	4 (≈ 6.34 µM)	4 (≈ 6.34 µM)	16 (≈ 25.4 µM)	16 (≈ 25.4 µM)	4 (≈ 6.34 µM)	–
CC(=O)O[C@H]1C[C@@]2(C)[C@@H](C[C@@H](O)[C@H]3[C@@]4(C)CC[C@@H](O)[C@@H](C)[C@@H]4CC[C@@]32C)/C1=C(\CCC=C(C)C)C(=O)O [FA, fusidic acid, reference compound]	> 64	> 64	0.1 (≈ 0.194 µM)	> 64	0.2 (≈ 0.387 µM)	> 64	16 (≈ 31 µM)	0.02 (≈ 0.0387 µM)	0.02 (≈ 0.0387 µM)	16 (≈ 31 µM)	0.02 (≈ 0.0387 µM)	> 64	–	16 (≈ 31 µM)	0.02 (≈ 0.0387 µM)
C[C@H](CCC(=O)NCCN(CCN)CCN)[C@H]1CC[C@H]2[C@@H]3CC[C@@H]4C[C@H](O)CC[C@]4(C)[C@H]3[C@H](O)C[C@]12C [Compound 107]	16 (≈ 30.7 µM)	16 (≈ 30.7 µM)	16 (≈ 30.7 µM)	16 (≈ 30.7 µM)	16 (≈ 30.7 µM)	16 (≈ 30.7 µM)	16 (≈ 30.7 µM)	16 (≈ 30.7 µM)	16 (≈ 30.7 µM)	16 (≈ 30.7 µM)	16 (≈ 30.7 µM)	4 (≈ 7.68 µM)	16 (≈ 30.7 µM)	16 (≈ 30.7 µM)	16 (≈ 30.7 µM)
CC(=O)O[C@H]1C[C@@]2(C)C(C[C@@H](O)C3[C@@]4(C)CC[C@@H](O)[C@@H](C)C4CC[C@@]32C)[C@@H]1[C@H](CCCC(C)C)C(=O)NCCN(CCN)CCN (stereo partly drawn) [Compound 101, 21-N-{2′-[bis(2′-aminoethyl)amino]ethyl}-17R,20S,24,25-tetrahydrofusid-21-amide]	4 (≈ 6.16 µM)	16 (≈ 24.7 µM)	4 (≈ 6.16 µM)	16 (≈ 24.7 µM)	4 (≈ 6.16 µM)	64 (≈ 98.6 µM)	4 (≈ 6.16 µM)	4 (≈ 6.16 µM)	4 (≈ 6.16 µM)	4 (≈ 6.16 µM)	4 (≈ 6.16 µM)	4 (≈ 6.16 µM)	16 (≈ 24.7 µM)	16 (≈ 24.7 µM)	4 (≈ 6.16 µM)
CC(=O)O[C@H]1C[C@@]2(C)C(C[C@@H](O)C3[C@@]4(C)CC[C@@H](OC(C)=O)[C@@H](C)C4CC[C@@]32C)[C@@H]1[C@H](CCCC(C)C)C(=O)NCCCN(CCCN)CCCN (stereo partly shown) [Compound 115]	125 (≈ 171 µM)	16 (≈ 21.8 µM)	64 (≈ 87.3 µM)	16 (≈ 21.8 µM)	4 (≈ 5.46 µM)	16 (≈ 21.8 µM)	–	4 (≈ 5.46 µM)	–	–	4 (≈ 5.46 µM)	16 (≈ 21.8 µM)	–	4 (≈ 5.46 µM)	4 (≈ 5.46 µM)
CC(C)CCCC(C(=O)NCCCN(CCCN)CCCN)[C@H]1CC[C@@]2(C)C1CCC1[C@@]3(C)CC[C@@H](O)[C@@H](C)C3CC[C@@]12C (stereo partly shown) [Compound 117, 21-N-{3′-[bis(3′-aminopropyl)amino]propyl}-1-11-desoxy-16-desacetoxy-17S,20,24,25-tetrahydrofusid-21-amide]	–	–	0.25 (≈ 0.405 µM)	–	–	–	1 (≈ 1.62 µM)	1 (≈ 1.62 µM)	1 (≈ 1.62 µM)	1 (≈ 1.62 µM)	1 (≈ 1.62 µM)	–	–	–	1 (≈ 1.62 µM)
CC(=O)O[C@H]1C[C@@]2(C)C(C[C@@H](O)C3[C@@]4(C)CC[C@H](O)[C@@H](C)C4CC[C@@]32C)[C@@H]1[C@H](CCCC(C)C)C(=O)NCCN(CCN)CCN (stereo partly shown) [Compound 105]	64 (≈ 98.6 µM)	16 (≈ 24.7 µM)	16 (≈ 24.7 µM)	64 (≈ 98.6 µM)	16 (≈ 24.7 µM)	16 (≈ 24.7 µM)	16 (≈ 24.7 µM)	16 (≈ 24.7 µM)	16 (≈ 24.7 µM)	16 (≈ 24.7 µM)	16 (≈ 24.7 µM)	64 (≈ 98.6 µM)	64 (≈ 98.6 µM)	64 (≈ 98.6 µM)	16 (≈ 24.7 µM)
C[C@H](C(=O)NCCCN(CCCN)CCCN)[C@H]1CC[C@H]2[C@@H]3CC=C4C[C@@H](O)CC[C@]4(C)[C@H]3CC[C@]12C [Compound 114, 22-N-{3′-[bis(3′-aminopropyl)amino]propyl}-23,24-bisnor-5-cholenic-22-amide]	–	> 125	64 (≈ 124 µM)	16 (≈ 31 µM)	16 (≈ 31 µM)	> 125	16 (≈ 31 µM)	16 (≈ 31 µM)	16 (≈ 31 µM)	16 (≈ 31 µM)	16 (≈ 31 µM)	64 (≈ 124 µM)	–	64 (≈ 124 µM)	16 (≈ 31 µM)
CC(=O)O[C@H]1C[C@@]2(C)C(CCC3[C@@]4(C)CC[C@@H](OS(=O)(=O)O)[C@@H](C)C4CC[C@@]32C)[C@@H]1[C@H](CCCC(C)C)C(=O)NCCN(CCN)CCN (stereo partly shown) [Compound 111, 21-N-{2′-[bis(2′-aminoethyl)amino]ethyl}-3-OSO3-11-desoxy-17,20,24,25-tetrahydro-fusid-21-amide]	64 (≈ 89.8 µM)	125 (≈ 175 µM)	16 (≈ 22.4 µM)	16 (≈ 22.4 µM)	4 (≈ 5.61 µM)	> 125	16 (≈ 22.4 µM)	16 (≈ 22.4 µM)	–	–	4 (≈ 5.61 µM)	64 (≈ 89.8 µM)	–	16 (≈ 22.4 µM)	16 (≈ 22.4 µM)
CC(=O)NC[C@H]1CN(c2ccc(N3CCOCC3)c(F)c2)C(=O)O1 [Linezolid, linezolid, reference compound]	–	–	–	–	1 (≈ 2.96 µM)	–	1 (≈ 2.96 µM)	16 (≈ 47.4 µM)	1 (≈ 2.96 µM)	–	0.25 (≈ 0.741 µM)	–	–	4 (≈ 11.9 µM)	4 (≈ 11.9 µM)
C/C(=C\C(=O)OCCCCCCCCC(=O)O)C[C@@H]1OC[C@H](C[C@@H]2O[C@H]2[C@@H](C)[C@H](C)O)[C@@H](O)[C@H]1O [Mupirocin, mupirocin, reference compound]	–	–	–	–	–	–	0.5 (≈ 0.999 µM)	1 (≈ 2 µM)	0.5 (≈ 0.999 µM)	–	0.04 (≈ 0.0799 µM)	–	–	1 (≈ 2 µM)	1 (≈ 2 µM)
CC(C)CCCC(C(=O)NCCN(CCN)CCN)[C@@H]1CC[C@@]2(C)C1C[C@@H](O)C1[C@@]3(C)CC[C@@H](O)[C@@H](C)C3CC[C@@]12C (stereo partly drawn) [Compound 103, 21-N-{2′-[bis(2′-aminoethyl)amino]ethyl}-16-desacetoxy-17R,20S,24,25-tetrahydrofusid-21-amide]	> 125	1 (≈ 1.69 µM)	1 (≈ 1.69 µM)	4 (≈ 6.77 µM)	1 (≈ 1.69 µM)	16 (≈ 27.1 µM)	1 (≈ 1.69 µM)	1 (≈ 1.69 µM)	1 (≈ 1.69 µM)	1 (≈ 1.69 µM)	1 (≈ 1.69 µM)	4 (≈ 6.77 µM)	16 (≈ 27.1 µM)	4 (≈ 6.77 µM)	1 (≈ 1.69 µM)
CC(=O)O[C@H]1C[C@@]2(C)C(CCC3[C@@]4(C)CC[C@@H](OS(=O)(=O)O)[C@@H](C)C4CC[C@@]32C)[C@@H]1[C@H](CCCC(C)C)C(=O)NCCCN(CCCN)CCCN (stereo partly shown) [Compound 116]	64 (≈ 84.8 µM)	64 (≈ 84.8 µM)	4 (≈ 5.3 µM)	64 (≈ 84.8 µM)	16 (≈ 21.2 µM)	125 (≈ 166 µM)	4 (≈ 5.3 µM)	4 (≈ 5.3 µM)	–	–	4 (≈ 5.3 µM)	16 (≈ 21.2 µM)	–	16 (≈ 21.2 µM)	4 (≈ 5.3 µM)
CC(C)CCCC(C(=O)NCCN(CCN)CCN)[C@H]1CC[C@@]2(C)C1CCC1[C@@]3(C)CC[C@@H](O)[C@@H](C)C3CC[C@@]12C (stereo partly shown) [Compound 112, 21-N-{2′-[bis(2′-aminoethyl)amino]ethyl}-11-desoxy-16-desacetoxy-17S,20,24,25-tetrahydrofusid-21-amide]	–	–	0.25 (≈ 0.435 µM)	–	–	–	1 (≈ 1.74 µM)	1 (≈ 1.74 µM)	1 (≈ 1.74 µM)	1 (≈ 1.74 µM)	1 (≈ 1.74 µM)	–	–	–	1 (≈ 1.74 µM)
